Test results reported in PMC12392461, “Beyond Estrogenicity: A Comparative Assessment of Bisphenol A and Its Alternatives in In Vitro Assays Questions Safety of Replacements” (Environmental Science & Technology, 2025).
Like-named read-outs stand apart in the source and are kept apart here.

Columns and labels:
[1] = molecular target: T1, Peroxisome proliferator-activated receptor γ (Homo sapiens, UniProt P37231); assay: cell-based; details: for EC10, linear / logEC10 / EC10, linear transformed: PPARγ bioassay, dosing range all; for EC10, linear: linear model; for logEC10: log-logistic model; for EC10, PPARγ (M): 10% of maximum effect of rosiglitazone; for SR-ScorePPARγ: SR-Score, sigma k=1, x=5; for Specificity ratio (SRbaseline) SRPPARγ: against baseline cytotoxicity; for Specificity ratio (SRcytotoxicity) SRPPARγ: against experimental cytotoxicity; for EC10, PPARγ: effect; for log(1/EC10) PPARγ: input of the ToxPi score, values up to 1.00; for Emax: read-out: Emax%PPARγ
T1 sequence (P37231 238-505 limits assumed): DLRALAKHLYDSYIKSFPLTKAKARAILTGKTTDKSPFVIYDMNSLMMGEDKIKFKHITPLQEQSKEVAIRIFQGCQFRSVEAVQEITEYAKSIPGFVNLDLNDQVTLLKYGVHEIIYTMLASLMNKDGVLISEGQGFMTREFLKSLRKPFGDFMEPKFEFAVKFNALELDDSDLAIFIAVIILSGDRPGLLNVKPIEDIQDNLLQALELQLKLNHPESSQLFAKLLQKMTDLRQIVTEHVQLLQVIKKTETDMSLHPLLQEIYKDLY
Summary of the method: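 ERα-UAS-bla GripTite and PPARγ-UAS-bla reporter cells were seeded in assay medium with 2% charcoal-stripped FBS and held 24 h at 37 °C before dosing. Viability came from IncuCyte confluency before and after exposure. EC10 used only concentrations below IC10; Emax% is the log-logistic curve maximum relative to the reference chemical.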

HEK293H (PPARγ) = details: for IC10, linear transformed / IC10, linear / logIC10: PPARγ bioassay cytotoxicity, dosing range all; for IC10, linear: linear model; for logIC10: log-logistic model; for IC10, HEK293, PPARγ: cytotoxicity, HEK293 (PPARγ assay cells); for Toxic ratio (TR) TRPPARγ: against baseline cytotoxicity
Description: (§1) Cell culture conditions and bioassay protocols including response detection are provided in Text S2.1–2.4 and Table S3. − Cell viability was determined from cell confluency using an IncuCyte S3 Live-Cell Analysis System (Sartorius AG, Essen, Germany) before and after exposure, except for SH-SY5Y cells (live–dead staining with Nuclear Green LcS1 and propidium iodide, Abcam, UK). For metabolic activation experiments, cell viability was assessed using the ToxBLAzer DualScreen Kit (Thermo Fisher Scientific) to capture the remaining toxicity in ERα-UAS-bla GripTite after treatment with the aCYP catalyst (details in Text S2.4).
(§2) For ARE, the concentration that triggered an induction ratio of 1.5 (ECIR1.5) was used as the benchmark value, as detailed in Text S2.5. IC10 values also served as a threshold for data analysis in all assays; only concentrations below IC10 were considered when deriving EC10 or ECIR1.5.
(§3) We measured the cytotoxicity of BPA and its alternatives in HEK293H (PPARγ), HEK293T (ERα), H4IIe (AhR CALUX), MCF7 (ARE/MMP), and differentiated SH-SY5Y cells (Table S6). […]
(§4) S2.2: Cell Seeding and Incubation. For all bioassays, cell suspensions in the respective assay medium were dispensed into each well of 384-well plates using a MultiFlo Dispenser (Biotek, (now Agilent), Winooski, VT, U.S.). After seeding, the plates were incubated at 37° C and 5% CO₂ for […]. The final cell densities and plate types were as follows: Black poly-D-lysine […]
(§5) 6500 cells/well, ERα: 5000 cells/well. White 384-well plates with a clear bottom (Product No.
(§6) NYC, U.S.) for AhR: 3250 cells/well. Black Collagen I coated plates were used (Product No.
(§7) S2.3: Chemical Dosing and Assay Analysis Procedures. The dosing procedure and high-throughput assay workflow have been described in detail before. 9 The dosing concentrations […]
(§8) Stock solutions were then either added directly to the respective cell culture medium or evaporated under nitrogen, followed by replenishment with fresh medium. The final solvent content in each well was kept below 1% for methanol, 0% for acetonitrile.
(§9) Dosing plates were prepared as 11 -step serial dilutions using a Hamilton Microlab Star robotic system (Hamilton, Bonaduz, Switzerland), and chemicals were dosed in duplicates by transferring 10 μL twice from the dosing plates to the cell plates . After quantifying cell confluency as described in S2. 4., the exposed cells were incubated at 37° C and 5% CO₂ for an additional 24 h. All chemicals were tested in all assays with at least three independent […]
(§10) S2.4: Cell Viability Measurement s and bioanalytical protocols . The confluency as a measure of cell viability was determined with an IncuCyte S3 Live -Cell Analysis System (Sartorius AG, Essen, Germany). With this method the confluency of cells in a microscopy image are normalized to control wells without cells and compared before and after 24 hours of exposure.
(§11) This method has been described previously 13. […]

HEK293T (ERα) = details: for IC10, linear transformed / IC10, linear / logIC10: Bioassay ERα, dosing range all; for IC10, linear transformed / IC10, linear / logIC10 / IC10, HEK293, ERα: cytotoxicity; for IC10, linear: linear model fit; for logIC10: log-logistic model fit; for IC10, HEK293, ERα: HEK293 (ERα assay cells); for Toxic ratio (TR) TRERα: against baseline cytotoxicity
Description: as §1, §2, §3, §4, §5, §6, §7, §8, §9, §10, §11

MCF7 (ARE/MMP) = details: for IC10, linear transformed / IC10, linear / logIC10: dosing range all; for IC10, MCF7, ARE: MCF7, ARE readout; for IC10, MCF7, MMP: MCF7, MMP readout; for Toxic ratio (TR) TRARE / Toxic ratio (TR) TRMMP: against baseline cytotoxicity; for Toxic ratio (TR) TRARE: ARE readout; for Toxic ratio (TR) TRMMP: MMP readout
Description: as §1, §2, §3, §4, §5, §6, §7, §8, §9, §10, §11

H4IIe (AhR CALUX) = details: for IC10, linear transformed / IC10, linear / logIC10: Bioassay AhR, dosing range all; for IC10, linear transformed / IC10, linear / logIC10 / IC10, H4IIe, AhR: cytotoxicity; for IC10, linear: linear model fit; for logIC10: log-logistic model fit; for IC10, H4IIe, AhR: H4IIe (AhR assay cells); for Toxic ratio (TR) TRAhR: against baseline cytotoxicity
Description: as §1, §2, §3, §4, §5, §6, §7, §8, §9, §10, §11

[2] = Bioassay ARE, cytotoxicity, linear model fit
[3] = Bioassay ARE, cytotoxicity, log-logistic model fit
[4] = MMP bioassay cytotoxicity, linear model
[5] = MMP bioassay cytotoxicity, log-logistic model

Structure (SMILES)	EC10, linear [1]	logEC10 [1]	IC10, linear transformed (HEK293H (PPARγ))	IC10, linear (HEK293H (PPARγ))	logIC10 (HEK293H (PPARγ))	IC10, HEK293, PPARγ (HEK293H (PPARγ))	IC10, linear transformed (HEK293T (ERα))	IC10, linear (HEK293T (ERα))	logIC10 (HEK293T (ERα))	IC10, HEK293, ERα (HEK293T (ERα))	IC10, linear transformed (MCF7 (ARE/MMP); Bioassay ARE, cytotoxicity)	IC10, linear (MCF7 (ARE/MMP); [2])	logIC10 (MCF7 (ARE/MMP); [3])	IC10, linear transformed (MCF7 (ARE/MMP); MMP bioassay cytotoxicity)	IC10, linear (MCF7 (ARE/MMP); [4])	logIC10 (MCF7 (ARE/MMP); [5])	IC10, MCF7, ARE (MCF7 (ARE/MMP); cytotoxicity)	IC10, MCF7, MMP (MCF7 (ARE/MMP); cytotoxicity)	IC10, linear transformed (H4IIe (AhR CALUX))	IC10, linear (H4IIe (AhR CALUX))	further results
CC(c1ccc(O)cc1)c1ccc(O)cc1 [BPE, 4,4′-Ethylidenbisphenol]	no effect	no effect	5.10E-06	6.46E-05	-4.15	70.8 µM	3.62E-05	6.74E-05	-4.23	67.4 µM	7.96E-05	1.10E-04	-4.10	7.86E-05	8.57E-05	-4.10	79.6 µM	78.6 µM	1.06E-04	8.43E-05	logIC10 (H4IIe (AhR CALUX)): -3.97; IC10, H4IIe, AhR (H4IIe (AhR CALUX)): 84.3 µM
Oc1ccc(Cc2ccc(O)cc2)cc1 [BPF, Bis(4-hydroxyphenyl)methane]	no effect	no effect	6.05E-06	1.05E-04	-4.01	97.7 µM	1.16E-05	1.61E-04	-3.78	164 µM	6.56E-04	6.90E-04	-3.18	5.26E-04	5.00E-04	-3.28	656 µM	526 µM	2.92E-04	2.92E-04	logIC10 (H4IIe (AhR CALUX)): -3.53; IC10, H4IIe, AhR (H4IIe (AhR CALUX)): 292 µM
CC(C)c1cc(C(C)(C)c2ccc(O)c(C(C)C)c2)ccc1O [BPG, 2,2-Bis(4-hydroxy-3-isopropylphenyl)propane]	1.61E-07	-6.93	3.91E-06	5.23E-06	-5.19	6.46 µM	5.99E-06	no cytotoxicity	-5.16	6.95 µM	6.03E-06	7.17E-06	-5.22	8.72E-06	8.88E-06	-5.06	6.03 µM	8.72 µM	2.43E-05	2.10E-05	EC10, PPARγ (M) [1]: 1.17 × 10^–7 M; EC10, linear transformed [1]: 1.17E-07; SR-ScorePPARγ [1]: 1.00; Specificity ratio (SRbaseline) SRPPARγ [1]: 12.28; Specificity ratio (SRcytotoxicity) SRPPARγ [1]: 54.95; EC10, PPARγ [1]: 0.117 µM; log(1/EC10) PPARγ [1]: 0.98; Emax [1]: 22%; Toxic ratio (TR) TRPPARγ (HEK293H (PPARγ)): 0.22; Toxic ratio (TR) TRERα (HEK293T (ERα)): 0.21; Toxic ratio (TR) TRARE (MCF7 (ARE/MMP)): 0.88; Toxic ratio (TR) TRMMP (MCF7 (ARE/MMP)): 0.61; logIC10 (H4IIe (AhR CALUX)): -4.61; Toxic ratio (TR) TRAhR (H4IIe (AhR CALUX)): 0.25; IC10, H4IIe, AhR (H4IIe (AhR CALUX)): 21 µM
CC(C)(c1ccc(O)c(-c2ccccc2)c1)c1ccc(O)c(-c2ccccc2)c1 [BPPH, 2,2-Bis(2-hydroxy-5-biphenylyl)propane]	9.24E-07	-6.26	4.34E-06	8.25E-06	-5.16	6.92 µM	5.43E-06	no cytotoxicity	-5.08	8.3 µM	2.86E-06	5.76E-06	-5.54	7.75E-06	5.66E-06	-5.11	2.86 µM	7.75 µM	1.81E-05	1.29E-05	EC10, PPARγ (M) [1]: 5.55 × 10^–7 M; EC10, linear transformed [1]: 5.55E-07; SR-ScorePPARγ [1]: 1.00; Specificity ratio (SRbaseline) SRPPARγ [1]: 1.90; Specificity ratio (SRcytotoxicity) SRPPARγ [1]: 12.47; EC10, PPARγ [1]: 0.555 µM; log(1/EC10) PPARγ [1]: 0.88; Emax [1]: 12%; Toxic ratio (TR) TRPPARγ (HEK293H (PPARγ)): 0.15; Toxic ratio (TR) TRERα (HEK293T (ERα)): 0.13; Toxic ratio (TR) TRARE (MCF7 (ARE/MMP)): 1.43; Toxic ratio (TR) TRMMP (MCF7 (ARE/MMP)): 0.53; logIC10 (H4IIe (AhR CALUX)): -4.74; Toxic ratio (TR) TRAhR (H4IIe (AhR CALUX)): 0.32; IC10, H4IIe, AhR (H4IIe (AhR CALUX)): 12.9 µM
